Experimental findings from patent US9561228B2 (Celgene Avilomics Research, Inc., priority 2013, dated 2017) are described below.

Structures are written as SMILES. pEC50, pIC50: −log10 of the molar value.

The test system of assay [1] is ERK1/2 phosphorylation of p90RSK in HCT116 cells. In words: Detection of total and phospho-RSK by MSD ELISA (HCT116). It is filed as cell-based. As to conditions: Homo sapiens, HCT-116, read-out: ERK1/ERK2 PRSK HCT116 EC50. A digest of the protocol: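 HCT116 cells treated with compound in RPMI/10% FBS for 2 h at 37° C, then lysed. Phospho-RSK (Ser380) and total RSK in lysates measured by MSD sandwich electrochemiluminescence ELISA as a readout of ERK1/2 activity.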

Assay [2] addresses T1, Erk1 (Homo sapiens, UniProt P27361).
T1 construct: purchased Millipore 14-439
As to the kind of experiment: Protein Mass Modification Assay (intact protein MALDI, 60 min, 10-fold excess of compound). The assay is classed as binding. The gist of the method:
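Human Erk1 was incubated 60 min at room temperature with a 10-fold molar excess of compound, then analysed as intact protein by MALDI with sinapinic acid matrix. The centroid mass shift versus untreated protein was divided by compound molecular weight to give percent modified protein.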

Assay [3] addresses T2, MEK1 activated ERK1 (Homo sapiens, UniProt P27361).
T2 construct: purchased Millipore (Billerica, Mass.) 14-439-K
As to the kind of experiment: Omnia continuous-read kinase assay for potency against MEK1 activated ERK1. It is filed as biochemical. As to conditions: ATP at KM, WT. The gist of the method: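 Apparent IC50 came from initial reaction slopes (RFU vs time) plotted against log inhibitor with a variable-slope fit. Reactions were started with ERK1 (4 nM final) added to 50 μM ATP, roughly at its appKM, and 10 μM Sox-conjugated ST17 peptide in 20 mM Tris pH 7.5, 5 mM MgCl2. Fluorescence was monitored every 71 seconds.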

T1 sequence (P27361 whole entry): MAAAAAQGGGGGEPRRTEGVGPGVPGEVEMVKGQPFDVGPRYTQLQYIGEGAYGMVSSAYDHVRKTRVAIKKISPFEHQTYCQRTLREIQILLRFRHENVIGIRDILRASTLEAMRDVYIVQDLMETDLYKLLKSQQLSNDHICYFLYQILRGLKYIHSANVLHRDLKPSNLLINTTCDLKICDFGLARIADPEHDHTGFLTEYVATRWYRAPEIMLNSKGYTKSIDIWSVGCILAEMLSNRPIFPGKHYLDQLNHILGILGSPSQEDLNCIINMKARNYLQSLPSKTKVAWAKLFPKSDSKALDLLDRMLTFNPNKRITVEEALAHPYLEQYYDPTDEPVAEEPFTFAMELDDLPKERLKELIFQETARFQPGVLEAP
T2 sequence (P27361 whole entry): as above

As for `C=CC(=O)Nc1cc(C)ccc1Nc1nc(Nc2cnc(OC)cc2C)ncc1C(F)(F)F` [Compound I-350, N-(2-((2-((6-methoxy-4-methylpyridin-3-yl)amino)-5-(trifluoromethyl)pyrimidin-4-yl)amino)-5-methylphenyl)acrylamide], the pEC50 in assay [1] was below 6.00. Also, the “ERK1 Mass Mod (%)” value in assay [2] was “F (a mass modification of 31-69%)”. Further, the pIC50 in assay [3] was 6.00 to 6.30.
`C=CC(=O)Nc1cc(C)ccc1Nc1nc(Nc2cc(OC)ncc2Cl)ncc1C(F)(F)F` [Compound I-351, N-(2-((2-((5-chloro-2-methoxypyridin-4-yl)amino)-5-(trifluoromethyl)pyrimidin-4-yl)amino)-5-methylphenyl)acrylamide]: the pEC50 in assay [1] is 6.00 to 6.30. In assay [2], the “ERK1 Mass Mod (%)” value is listed as “F (a mass modification of 31-69%)”. Besides, in assay [3], the negative-log IC50 (pIC50) was 6.30 to 7.00.
For the molecule `C=CC(=O)Nc1cc(C)ccc1Nc1nc(Nc2ncc(C(F)(F)F)c(OC)n2)ncc1C(F)(F)F` [Compound I-354, N-(2-((2-((4-methoxy-5-(trifluoromethyl)pyrimidin-2-yl)amino)-5-(trifluoromethyl)pyrimidin-4-yl)amino)-5-methylphenyl)acrylamide], in assay [1], the pEC50 is 6.30 to 7.00. For the same molecule, in assay [2], the “ERK1 Mass Mod (%)” value is “E (a mass modification of ≧70%)”. Further, the negative logarithm of the IC50 (pIC50) in assay [3] was 6.30 to 7.00.
As for `C=CC(=O)Nc1cc(C)ccc1Nc1nc(Nc2nc(OC)ncc2C(F)(F)F)ncc1C(F)(F)F` [Compound I-355, N-(2-((2-((2-methoxy-5-(trifluoromethyl)pyrimidin-4-yl)amino)-5-(trifluoromethyl)pyrimidin-4-yl)amino)-5-methylphenyl)acrylamide], in assay [1], the pEC50 is 6.30 to 7.00. For the same molecule, the “ERK1 Mass Mod (%)” value in assay [2] is on record as “E (a mass modification of ≧70%)”. In addition, the pIC50 in assay [3] is 6.30 to 7.00.
Consider `C=CC(=O)Nc1cc(C)ccc1Nc1nc(Nc2ncc(F)c(OC)n2)ncc1C(F)(F)F` [Compound I-356, N-(2-((2-((5-fluoro-4-methoxypyrimidin-2-yl)amino)-5-(trifluoromethyl)pyrimidin-4-yl)amino)-5-methylphenyl)acrylamide], for which the pEC50 in assay [1] is 6.00 to 6.30. Also, in assay [2], the “ERK1 Mass Mod (%)” value is recorded as “E (a mass modification of ≧70%)”. In assay [3], the pIC50 was 6.00 to 6.30.
On to `C=CC(=O)Nc1cc(C)ccc1Nc1nc(Nc2nc(OC)ncc2F)ncc1C(F)(F)F` [Compound I-357, N-(2-((2-((5-fluoro-2-methoxypyrimidin-4-yl)amino)-5-(trifluoromethyl)pyrimidin-4-yl)amino)-5-methylphenyl)acrylamide], for which the pEC50 in assay [1] is 6.30 to 7.00. In addition, the “ERK1 Mass Mod (%)” value in assay [2] was “E (a mass modification of ≧70%)”. Also, the negative-log IC50 (pIC50) in assay [3] is 6.30 to 7.00.
For the molecule `C=CC(=O)Nc1cc(C)ccc1Nc1nc(Nc2cc(OCC)ncc2C)ncc1C(F)(F)F` [Compound I-358, N-(2-((2-((2-ethoxy-5-methylpyridin-4-yl)amino)-5-(trifluoromethyl)pyrimidin-4-yl)amino)-5-methylphenyl)acrylamide], the pEC50 in assay [1] was 6.00 to 6.30. For the same molecule, the “ERK1 Mass Mod (%)” value in assay [2] is reported as “E (a mass modification of ≧70%)”. For the same molecule, in assay [3], the pIC50 was 6.30 to 7.00.
For `C=CC(=O)Nc1cc(C)ccc1Nc1nc(Nc2cc(OCCOC)ncc2C)ncc1C(F)(F)F` [Compound I-359, N-(2-((2-((2-(2-methoxyethoxy)-5-methylpyridin-4-yl)amino)-5-(trifluoromethyl)pyrimidin-4-yl)amino)-5-methylphenyl)acrylamide] the same measures were 6.00 to 6.30, “E (a mass modification of ≧70%)” and 6.30 to 7.00.
The corresponding values for `C=CC(=O)Nc1cc(C)c(F)cc1Nc1nc(Nc2cc(OC)ncc2C)ncc1C(F)(F)F` [Compound I-366, N-(4-fluoro-2-((2-((2-methoxy-5-methylpyridin-4-yl)amino)-5-(trifluoromethyl)pyrimidin-4-yl)amino)-5-methylphenyl)acrylamide] are below 6.00, “E (a mass modification of ≧70%)” and below 6.00.
Consider `C=CC(=O)Nc1c(Nc2nc(Nc3cc(OC)ncc3C)ncc2C(F)(F)F)ccc(C)c1F` [Compound I-367, N-(2-fluoro-6-((2-((2-methoxy-5-methylpyridin-4-yl)amino)-5-(trifluoromethyl)pyrimidin-4-yl)amino)-3-methylphenyl)acrylamide], for which the pEC50 in assay [1] was 6.00 to 6.30. In addition, the “ERK1 Mass Mod (%)” value in assay [2] is listed as “E (a mass modification of ≧70%)”. The pIC50 in assay [3] is 6.30 to 7.00.
In the case of `C=CC(=O)Nc1cc(C)ccc1Nc1nc(Nc2cc(OC(C)C)ncc2C)ncc1C(F)(F)F` [Compound I-369, N-(2-((2-((2-isopropoxy-5-methylpyridin-4-yl)amino)-5-(trifluoromethyl)pyrimidin-4-yl)amino)-5-methylphenyl)acrylamide], the pEC50 in assay [1] is below 6.00. In addition, in assay [2], the “ERK1 Mass Mod (%)” value was “F (a mass modification of 31-69%)”. Besides, the negative-log IC50 (pIC50) in assay [3] is below 6.00.
As for `C=CC(=O)Nc1cc(C)ccc1Nc1nc(Nc2c[nH]c(=O)cc2C)ncc1C(F)(F)F` [Compound I-370, N-(5-methyl-2-((2-((4-methyl-6-oxo-1,6-dihydropyridin-3-yl)amino)-5-(trifluoromethyl)pyrimidin-4-yl)amino)phenyl)acrylamide], in assay [1], the pEC50 was 6.00 to 6.30. The “ERK1 Mass Mod (%)” value in assay [2] is “E (a mass modification of ≧70%)”. For the same molecule, in assay [3], the pIC50 was 6.30 to 7.00.
In the case of `C=CC(=O)Nc1cc(C)ccc1Nc1nc(Nc2nc(OC)nc(OC)n2)ncc1C(F)(F)F` [Compound I-371, N-(2-((2-((4,6-dimethoxy-1,3,5-triazin-2-yl)amino)-5-(trifluoromethyl)pyrimidin-4-yl)amino)-5-methylphenyl)acrylamide], in assay [1], the pEC50 was below 6.00. The “ERK1 Mass Mod (%)” value in assay [2] is “F (a mass modification of 31-69%)”. The pIC50 in assay [3] was 6.30 to 7.00.
Consider `C=CC(=O)Nc1cc(C)ccc1Nc1nc(Nc2cc(OC)nnc2OC)ncc1C(F)(F)F` [Compound I-372, N-(2-((2-((3,6-dimethoxypyridazin-4-yl)amino)-5-(trifluoromethyl)pyrimidin-4-yl)amino)-5-methylphenyl)acrylamide], for which the pEC50 in assay [1] was 6.30 to 7.00. In assay [2], the “ERK1 Mass Mod (%)” value was “F (a mass modification of 31-69%)”. Besides, the negative logarithm of the IC50 (pIC50) in assay [3] is 6.00 to 6.30.
As to `C=CC(=O)Nc1cc(C)ccc1Nc1nc(Nc2cc(-c3nc[nH]n3)ccc2C)ncc1C(F)(F)F` [Compound I-373, N-(5-methyl-2-((2-((2-methyl-5-(1H-1,2,4-triazol-3-yl)phenyl)amino)-5-(trifluoromethyl)pyrimidin-4-yl)amino)phenyl)acrylamide], in assay [1], the pEC50 is 6.00 to 6.30. Moreover, the “ERK1 Mass Mod (%)” value in assay [2] is “F (a mass modification of 31-69%)”. In addition, in assay [3], the pIC50 is below 6.00.
Regarding `C=CC(=O)Nc1cc(C)c(F)cc1Nc1nc(Nc2nc(OC)ncc2Cl)ncc1C(F)(F)F` [Compound I-374, N-(2-((2-((5-chloro-2-methoxypyrimidin-4-yl)amino)-5-(trifluoromethyl)pyrimidin-4-yl)amino)-4-fluoro-5-methylphenyl)acrylamide], the pEC50 in assay [1] is above 7.00. Further, the “ERK1 Mass Mod (%)” value in assay [2] is listed as “E (a mass modification of ≧70%)”. In addition, the pIC50 in assay [3] was above 7.00.
`C=CC(=O)Nc1cc(C)ccc1Nc1nc(Nc2ccc3ocnc3c2)ncc1C(F)(F)F` [Compound I-375, N-(2-((2-(benzo[d]oxazol-5-ylamino)-5-(trifluoromethyl)pyrimidin-4-yl)amino)-5-methylphenyl)acrylamide]: the pEC50 in assay [1] was below 6.00. For the same molecule, the “ERK1 Mass Mod (%)” value in assay [2] is “E (a mass modification of ≧70%)”. Besides, the negative-log IC50 (pIC50) in assay [3] is below 6.00.
On to `C=CC(=O)Nc1cc(C)ccc1Nc1nc(Nc2cc(OCCO)ncc2C)ncc1C(F)(F)F` [Compound I-376, N-(2-((2-((2-(2-hydroxyethoxy)-5-methylpyridin-4-yl)amino)-5-(trifluoromethyl)pyrimidin-4-yl)amino)-5-methylphenyl)acrylamide], for which the pEC50 in assay [1] is above 7.00. Further, the “ERK1 Mass Mod (%)” value in assay [2] is “E (a mass modification of ≧70%)”. Further, the pIC50 in assay [3] is 6.30 to 7.00.
For `C=CC(=O)Nc1cc(C)c(F)cc1Nc1nc(Nc2nc(OC)ncc2C)ncc1C(F)(F)F` [Compound I-377, N-(4-fluoro-2-((2-((2-methoxy-5-methylpyrimidin-4-yl)amino)-5-(trifluoromethyl)pyrimidin-4-yl)amino)-5-methylphenyl)acrylamide] the same measures were above 7.00, “E (a mass modification of ≧70%)” and above 7.00.
For `C=CC(=O)Nc1cc(C)ccc1Nc1nc(Nc2cc(-c3c[nH]cn3)ccc2C)ncc1C(F)(F)F` [Compound I-378, N-(2-((2-((5-(1H-imidazol-4-yl)-2-methylphenyl)amino)-5-(trifluoromethyl)pyrimidin-4-yl)amino)-5-methylphenyl)acrylamide] the same measures were below 6.00, “E (a mass modification of ≧70%)” and 6.00 to 6.30.
For `C=CC(=O)Nc1cc(C)ccc1Nc1nc(Nc2ccnc3ccccc23)ncc1C(F)(F)F` [Compound I-379, N-(5-methyl-2-((2-(quinolin-4-ylamino)-5-(trifluoromethyl)pyrimidin-4-yl)amino)phenyl)acrylamide] the same measures were 6.00 to 6.30, “E (a mass modification of ≧70%)” and 6.30 to 7.00.

For orientation: pIC50 means −log10 of the IC50, conventionally taken in molar units.
